# In patent US6958141B2, “Rhenium and technetium complexes containing a hypoxia-localizing moiety” (Bracco International B.V., priority 1991, dated 2005):
# Legend:
# [1] = Determination of reduction potential by cyclic voltammetry; format: physicochemical; conditions: for Epc(V): cyclic voltammetry in dimethylformamide at Hg, vs. Ag/AgNO3; for Reduction process: cyclic voltammetry in dimethylformamide
# Experimental: The reduction potentials of misonidazole, ^99TcO(PnAO), and ^99Tc-hypoxia-localizing tracers were determined by cyclic voltammetry (C.V.) in dimethylformamide. […] The reference electrode was Ag/AgNO3 with an acetonitrile filling solution saturated with LiCl. The counter electrode was a platinum wire. Voltamograms at mercury were determined at scan rates of 50, 100, 200, and 500 mV/s.
# The solutions used in C.V. studies contained test sample at a concentration of 0.2-0.7 mM and tetrabutylammonium tetrafluoroborate (Bu4NBF4) or tetrabutylammonium hexafluorophosphate (Bu4NPF6) supporting electrolyte at a concentration of 0.1M. The solution was deoxygenated by bubbling solvent-saturated nitrogen or argon through the solution for 15 minutes. Variations in the reference potential were accounted for by determining the C.V. of a Ru(acac)3 standard on a daily basis.
# xanthine oxidase = target: T1, xanthine oxidase (Bos taurus, UniProt P80457); test: Reduction of the Tc nitroimidazole complexes by xanthine oxidase; format: biochemical; conditions: xanthine oxidase 1.25 units, hypoxanthine, pH 7.4, anaerobic (argon), up to 7 hours
# T1 construct: purchased Boeringer (sic; Boehringer)
# T1 sequence (P80457 whole entry): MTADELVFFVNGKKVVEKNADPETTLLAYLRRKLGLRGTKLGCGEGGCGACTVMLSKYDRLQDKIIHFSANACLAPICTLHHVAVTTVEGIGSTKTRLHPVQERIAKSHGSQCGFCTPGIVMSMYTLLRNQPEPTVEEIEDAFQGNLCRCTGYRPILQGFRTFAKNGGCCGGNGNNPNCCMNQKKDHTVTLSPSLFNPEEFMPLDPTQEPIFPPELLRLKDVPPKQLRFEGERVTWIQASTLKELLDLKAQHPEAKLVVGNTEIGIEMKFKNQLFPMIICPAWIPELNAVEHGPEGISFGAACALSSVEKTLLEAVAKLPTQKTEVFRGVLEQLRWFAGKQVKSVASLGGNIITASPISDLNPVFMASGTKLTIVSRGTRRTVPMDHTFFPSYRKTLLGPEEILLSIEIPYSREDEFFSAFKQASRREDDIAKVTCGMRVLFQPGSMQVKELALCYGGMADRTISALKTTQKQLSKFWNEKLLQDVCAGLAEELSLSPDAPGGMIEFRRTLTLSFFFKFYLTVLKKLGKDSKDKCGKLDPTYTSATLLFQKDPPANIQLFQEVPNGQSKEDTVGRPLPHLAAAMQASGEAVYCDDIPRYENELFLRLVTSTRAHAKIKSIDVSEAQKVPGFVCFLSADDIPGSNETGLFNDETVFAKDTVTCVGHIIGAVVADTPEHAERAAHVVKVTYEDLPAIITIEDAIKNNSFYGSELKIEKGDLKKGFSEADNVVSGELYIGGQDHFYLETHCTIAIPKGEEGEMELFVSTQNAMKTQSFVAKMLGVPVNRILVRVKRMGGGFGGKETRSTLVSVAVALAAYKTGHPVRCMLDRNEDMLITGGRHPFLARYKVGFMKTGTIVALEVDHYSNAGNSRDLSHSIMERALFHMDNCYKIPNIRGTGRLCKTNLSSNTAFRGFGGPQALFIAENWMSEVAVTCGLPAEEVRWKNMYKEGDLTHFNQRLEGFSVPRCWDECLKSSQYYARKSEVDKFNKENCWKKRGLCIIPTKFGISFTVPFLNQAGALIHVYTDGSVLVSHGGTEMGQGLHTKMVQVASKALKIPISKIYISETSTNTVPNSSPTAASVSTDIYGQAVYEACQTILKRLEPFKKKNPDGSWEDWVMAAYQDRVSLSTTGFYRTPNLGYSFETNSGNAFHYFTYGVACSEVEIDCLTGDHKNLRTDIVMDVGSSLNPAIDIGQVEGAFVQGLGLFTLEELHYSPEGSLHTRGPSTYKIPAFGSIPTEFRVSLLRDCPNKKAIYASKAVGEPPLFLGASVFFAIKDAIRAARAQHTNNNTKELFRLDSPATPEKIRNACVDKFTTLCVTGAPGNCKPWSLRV
# From the text: The enzyme xanthine oxidase (in the presence of xanthine or hypoxanthine) is known to reduce the nitro group of such nitroimidazole-containing compounds as misonidazole and metronidazole (see for example P. D. Josephy, B. Palcic and L. D. Skarsgard,. “Reduction of Misonidazole and its Derivatives by Xanthine Oxidase”, Biochem. Pharmacol., 1981, 30, 849), and it has been postulated that such nitro reduction under anaerobic conditions is responsible for the selective trapping of these compounds in hypoxic tissue. Thus, a technetium or rhenium containing nitroimidazole complex should be capable of being reduced by xanthine oxidase under anaerobic conditions in the presence of hypoxanthine.
# To a 2.5 mL quartz cuvette was added 0.25 micromoles of the ^99Tc-nitroimidazole complex of Example 6 or 6b in 125 μL of dimethylformamide, 1 mL of 0.01M hypoxanthine in pH 7.4 sodium phosphate buffer (0.1M), and 0.875 mL of 0.1M sodium phosphate buffer (pH 7.4) that contained 20 mg/L of disodium ethylenediamine tetraacetic acid (EDTA). The cuvette was sealed with a rubber septum, and purged with argon for 15 minutes to remove oxygen. To this was added 1.25 units of the enzyme xanthine oxidase (Boeringer) in 0.5 mL of deoxygenated pH 7.4 phosphate buffer. The cuvette was inverted to mix, and the UV/visible spectrum of the solution was recorded from 280 to 600 nm at 15 minute intervals.
# It is believed that the disappearance of this nitro absorbance is due to reduction of the nitro group by xanthine oxidase.
# In a parallel control reaction, the reagents above were mixed in the same fashion, but the ^99Tc complex of 3,3,9,9-tetramethyl-4,8-diazaundecane-2,10-dione dioxime (prepared by the method of Jurisson et al., Inorg. Chem., 1986, 25, 543) was substituted for the technetium complexes of Examples 6 or 6b.
# [2] = test system: hypoxic ischemic border zone; test: Rabbit focal myocardial ischemia model (LAD occlusion), double-label autoradiography; format: in vivo; conditions: permanent LAD coronary artery ligation, intravenous tracer, heart sections
# Experimental: A model of focal myocardial ischemia in the rabbit was developed, using permanent ligation of the left anterior descending (LAD) coronary artery. The model consisted of two studies. In the first, relative regional myocardial blood flow (MBF) and relative regional myocardial rate of glucose metabolism (MMRgl) were determined by autoradiography using a double-label study with the flow tracer ^99mTcCl(CDO)3MeB (R. K. Narra et al., J. Nucl. Med., 1989; 30:1830-1837) and ^14C-deoxy-glucose for MMRgl (L. Sokoloff et al., J. Neurochem., 1977, 28, 897-916). ^14C-deoxyglucose and the ^99mTc-hypoxia-localizing tracer were administered to a second group of rabbits with LAD coronary artery occlusion.
# After the surgical preparation and 20 minutes of LAD occlusion, ^14C-deoxyglucose (130-150 μCi) was injected as an intravenous bolus, and timed arterial blood samples were obtained. Twenty-five minutes later, ^99mTcCl(CDO)3MeB (10-12 mCi) was administered intravenously. Five minutes later, the rabbits were sacrificed by intravenous injection of Nembutal and potassium chloride. The heart was excised, frozen in liquid Freon-22, and 20 μm coronal sections obtained with a Microtome. Autoradiographs were obtained on all sections. For the first exposure (˜14 hours duration) of Kodak XAR film, extra heavy duty aluminum foil was interposed between the tissue and film to block completely the radiation emanating from ^14C to obtain the MBF information derived from ^99mTcCl(CDO)3MeB alone. After three days (to allow for decay of ^99mTc); a second autoradiograph was obtained without foil. The second exposure lasted 6-8 days, and,provided an image of the regional distribution of ^14C-deoxyglucose.
# In a separate experiment using the rabbit LAD occlusion model and the double-label autoradiography procedures described above, the performance of the ^99mTc complex of the ligand described in Example 1 was compared to that of ^14C-misonidazole.
# hypoxic border zone = test: Rat focal cerebral ischemia model (MCA occlusion), double-label autoradiography; format: in vivo, spontaneously hypertensive rats (SHR); conditions: SHR, injected 1 hour or five days after MCA occlusion, both time points
# Experimental: A model of focal cerebral ischemia involving tandem occlusion of the internal carotid artery and the ipsilateral middle cerebral artery (MCA) in spontaneously hypertensive rats (SHR) was characterized using the double-label autoradiography procedure described in Example 10. […] Following surgery, which was performed under Halothane anesthesia, the rats were allowed to recover and one hour after the MCA occlusion, ^14C-deoxyglucose was injected as an IV bolus and timed arterial samples were obtained. Twenty-five minutes after ^14C-deoxyglucose injection, ^99mTcCl(DMG)32MP was injected as an IV bolus and the rat was sacrificed 15 seconds later. The brain was rapidly removed and sections and autoradiograms were obtained as described in Example 10. As found in Example 10 for the rabbit LAD occlusion model, the ischemic territory was bordered by a rim of tissue in which glycolysis was elevated. […] Nevertheless, it was clear that the ischemic region is surrounded by a border zone of increased glycolysis. In a second series of experiments, the ^99mTc complex of the ligand described in Example 1 and ^14C-deoxyglucose were co-injected 1 hour or five days after MCA occlusion.
Epc(V) ([1]; first or only reduction listed),Reduction process ([1]; first or only reduction listed),Compound,Epc(V) ([1]; second reduction listed),Reduction process ([1]; second reduction listed),"absorbance peak at approximately 320 nm (nitroimidazole functionality), UV/visible spectral change (xanthine oxidase)",regional myocardial distribution pattern (autoradiography) [2],uptake in brain autoradiograms (hypoxic border zone)
−1.48 V,reversible,"CC1=[N+](O)[99Tc-]23(=[O])[N](CC(O)C[N]2C1(C)C)C(C)(C)C(Cn1ccnc1[N+](=O)[O-])=[N+]3[O-] (stereo not drawn) [Example 6b, [^99Tc]Oxo[[6-hydroxy-3,3,9,9-tetramethyl-(2-nitro-1H-imidazo-1-yl)-4,8-diazaundecane-2,10-dione dioximato]-(3-)-N,N′,N″,N′″]technetium (V)]",−1.96 V,irreversible,decreased in intensity,,
,,^14C-deoxyglucose [reference compound],,,,high uptake in the ischemic border zone,increased uptake in the hypoxic border zone relative to surrounding normoxic tissue
−2.15 V,irreversible,"CC1=[N+]([O-])[99Tc-]23(=[O])[N](CCC[N]2C(C)(C)C(C)=[N+]3O)C1(C)C [^99TcO(PnAO), Tc(V) Oxo 3,3,9,9-tetramethyl-4-8-diazaundecane-2,10-dione-dioxime, reference compound]",,,no spectral changes were observed over a period of 7 hours,,

Compound,Epc(V) ([1]; first or only reduction listed),Reduction process ([1]; first or only reduction listed),Epc(V) ([1]; second reduction listed),Reduction process ([1]; second reduction listed),"absorbance peak at approximately 320 nm (nitroimidazole functionality), UV/visible spectral change (xanthine oxidase)",regional myocardial distribution pattern (autoradiography) [2],uptake in brain autoradiograms (hypoxic border zone)
"CC1=[N+](O)[99Tc-]23(=[O])[N](CCC[N]2C1(C)C)C(C)(C)C(Cn1ccnc1[N+](=O)[O-])=[N+]3[O-] [Example 6, [^99Tc]Oxo[[3,3,9,9-tetramethyl-1-(2-nitro-1H-imidazo-1-yl)-4,8-diazaundecane-2,10-dione dioximato]-(3-)-N,N′,N″,N′″]technetium(V)]",−1.49 V,reversible,−1.99 V,irreversible,decreased in intensity,,
